Data on 4 molecules can be found in patent US20160138088A1, “OPTIMIZED PROBES AND PRIMERS AND METHODS OF USING SAME FOR THE DETECTION, SCREENING, ISOLATION AND SEQUENCING OF VANCOMYCIN RESISTANCE GENES AND VANCOMYCIN RESISTANT ENTEROCOCCI” (priority 2009, published 2016).

“And” between values parts separate entries of the source, which are not always exact repeats. Equal entries are not always repeated.

One data set concerns VanB phenotype (vanB). To be noted: allele vanB; cited from earlier work.
Another data set deals with VanG phenotype (vanG). The note with it: allele vanG; cited from earlier work.
The subject of another data set is VanC phenotype (vanC). To be noted: allele vanC; cited from earlier work.
The next data set relates to VanE phenotype (vanE). The note with it: allele vanE; cited from earlier work.
The subject of a further data set is VanD phenotype (vanD). The note with it: allele vanD; cited from earlier work.
A further data set relates to VanA phenotype (vanA). The note with it: allele vanA; cited from earlier work.
In data set [1] the test system is E. faecalis vanB synthetic construct. Description: Real-time PCR amplification of vanB synthetic construct. The note with it: Input synthetic construct (vanB); oligos 400 nM each; ABI 7500, 50 cycles. The procedure: (§1) The oligonucleotide sequences listed in Table 5 were tested for their ability to amplify their intended target sequences. About 25 μL PCRs were formulated using iQTM Supermix for qPCR (BioRad) and oligos at a final concentration of 400 nM each.
(§2) Genomic DNA isolated from E. faecium (ATCC No. 5159, strain MMC4, vanA) and E. faecalis (ATCC No. 700802, strain V583, vanB) were loaded into real-time PCRs using oligonucleotide solutions specific for vanA and vanB. The specificity of the oligonucleotide solutions was assessed by attempting to amplify E. faecalis (vanB) gDNA with vanA oligos and E. faecium (vanA) gDNA with vanB oligos. Amplification plots are illustrated in FIGS. 1 and 2, which show detection of vanA and vanB. Synthetic constructs encoding the vanA and vanB targets were amplified and compared to duplicate reactions where E. faecium (ATCC No. 5159, strain MMC4, vanA) and E. faecalis (ATCC No. 700802, strain V583, vanB) gDNA was amplified.
(§3) PCRs were run on the ABI 7500 with the following Thermal protocol: • 95° C. 5 minute, initial denaturation • 50 cycles of: • 95° C. 15 sec, denaturation, and • 60° C. 1 min, annealing/extension […]

Data set [2] concerns E. faecium (ATCC No. 5159, strain MMC4, vanA) gDNA. In words: Real-time PCR on E. faecium (vanA) gDNA. To be noted: Input E. faecium (ATCC No. 5159, strain MMC4 vanA) gDNA; duplicate reactions; oligos 400 nM each. How it is done:
as §1, §2, §3

In data set [3] the test system is E. faecalis (ATCC No. 700802, strain V583, vanB) gDNA. In words: Real-time PCR on E. faecalis (vanB) gDNA. The note with it: Input E. faecalis (ATCC No. 700802, strain V583, vanB) gDNA; duplicate reactions; oligos 400 nM each. How it is done:
as §1, §2, §3
A general note: Quantitative PCR measures a nucleic acid by following its amplification.

Data set [4] has as its system E. faecium vanA synthetic construct. Description: Real-time PCR amplification of vanA synthetic construct. To be noted: Input synthetic construct (vanA); oligos 400 nM each; ABI 7500, 50 cycles. How it is done: as §1, §2, §3

Consider `CN[C@H](CC(C)C)C(=O)N[C@H]1C(=O)N[C@@H](CC(N)=O)C(=O)N[C@H]2C(=O)N[C@H]3C(=O)N[C@H](C(=O)N[C@H](C(=O)O)c4cc(O)cc(O)c4-c4cc3ccc4O)[C@H](O)c3ccc(c(Cl)c3)Oc3cc2cc(c3O[C@@H]2O[C@H](CO)[C@@H](O)[C@H](O)[C@H]2O[C@H]2C[C@](C)(N)[C@H](O)[C@H](C)O2)Oc2ccc(cc2Cl)[C@H]1O` [vancomycin], for which the MIC is listed as 4-1024 (can be high) μg/mL with VanB phenotype (vanB); 12-16 (low) μg/mL in the data set with VanG phenotype (vanG); 2-32 (low) μg/mL with VanC phenotype (vanC); 16 (low) μg/mL in the data set with VanE phenotype (vanE); 128 (moderate) μg/mL in the data set with VanD phenotype (vanD).

teicoplanin: the MIC result in the data set on VanB phenotype (vanB) is listed as “≦0.5 (sensitive) μg/mL”; with VanG phenotype (vanG), 0.5 (sensitive) μg/mL; in the data set with VanC phenotype (vanC), “≦0.5 (sensitive) μg/mL”; with VanE phenotype (vanE), 0.5 (sensitive) μg/mL; in the data set with VanD phenotype (vanD), 4 (moderate) μg/mL; in the data set on VanA phenotype (vanA), 16-512 (high) μg/mL.

B1: vanB: vanB oligonucleotide solution: SEQ ID NOS: 103, 108, and 66 (nucleic acid)
DNA 1: TTACCTACCCTGTCTTTGTGAA
DNA 2: CAGGTTCGTCCTTTGGCGTAACCA
DNA 3: GCTCAATTAAGATTTTTCCATCATATTGTC
modifications: chemistry not given here
Regarding B1, the Ct was 24.04 in [1]; “UND” in data set [2]; 21.85 and 21.53 in data set [3].

B2: vanA: vanA oligonucleotide solution: SEQ ID NO: 1, 2, and 5 (nucleic acid)
DNA 1: TTGTGCGGTATTGGGAAACAGT
DNA 2: TGATTTGGTCCACCTCGCCAACAACTAACGC
DNA 3: CTCGACTTCCTGATGAATACGAAAGATTC
modifications: chemistry not given here
With B2, the Ct in data set [2] is 19.67 and 19.80; in data set [3], “UND”; in [4], 23.36.
